# Laboratory results as given in patent publication US11661403B2, “Oxadiazole compounds” (Vivace Therapeutics, Inc., priority 2018, dated 2023).
# pIC50: −log10 of the molar value.
# Test system: 8XTBD luciferase reporter (YAP) in HEK293T cells
# Experiment: YAP Reporter Assay
# Assay type: cell-based
# Settings: Homo sapiens, HEK-293T, 24 h, read-out: Firefly Luciferase IC50 (μM)
row,Compound,IC50 [µM]
1,"CCOC(=O)C(O)(C(=O)OCC)c1nnc(-c2ccccc2Nc2ccc(C(F)(F)F)cc2)o1 [Compound 200, diethyl 2-hydroxy-2-(5-(2-((4-(trifluoromethyl)phenyl)amino)phenyl)-1,3,4-oxadiazol-2-yl)malonate]",0.1 to 1

# Same assay, conditions: Homo sapiens, HEK-293T; HEK293T cells stably transfected with 8XTBD luciferase reporter and pRLTK; 24-hr incubation; top concentration 3 μM; read-out: Firefly Luciferase IC50
row,Compound,pIC50
1,"O=C(O)C1(c2nnc(-c3ccccc3Nc3ccc(C(F)(F)F)cc3)o2)CC1 [Compound 166, 1-(5-(2-((4-(trifluoromethyl)phenyl)amino)phenyl)-1,3,4-oxadiazol-2-yl)cyclopropane-1-carboxylic Acid]",> 7.00
2,"COc1nnc(-c2ccccc2Nc2ccc(C(F)(F)F)cc2)o1 [Compound 73, 2-(5-methoxy-1,3,4-oxadiazol-2-yl)-N-(4-(trifluoromethyl)phenyl)aniline]",> 7.00
3,"O=C(NC1CC1)c1nnc(-c2ccccc2Nc2ccc(C(F)(F)F)cc2)o1 [Compound 195, N-cyclopropyl-5-(2-((4-(trifluoromethyl)phenyl)amino)phenyl)-1,3,4-oxadiazole-2-carboxamide]",6.00 to 7.00
4,"CCN(C#N)Cc1nnc(-c2ccccc2Nc2ccc(C(F)(F)F)cc2)o1 [Compound 102, N-ethyl-N-((5-(2-((4-(trifluoromethyl)phenyl)amino)phenyl)-1,3,4-oxadiazol-2-yl)methyl)cyanamide]",> 7.00
5,"OC1(c2nnc(-c3ccccc3Nc3ccc(C(F)(F)F)cc3)o2)CCCC1 [Compound 52, 1-(5-(2-((4-(trifluoromethyl)phenyl)amino)phenyl)-1,3,4-oxadiazol-2-yl)cyclo pentanol]",> 7.00
6,"FC(F)(F)c1ccc(Nc2ccccc2-c2nnc(C3CCNC3)o2)cc1 (stereo not shown) [Compound 175, 2-(5-(pyrrolidin-3-yl)-1,3,4-oxadiazol-2-yl)-N-(4-(trifluoromethyl)phenyl)aniline]",6.00 to 7.00
7,"CC(C)(C(N)=O)c1nnc(-c2ccccc2Nc2ccc(C(F)(F)F)cc2)o1 [Compound 162, 2-methyl-2-(5-(2-((4-(trifluoromethyl)phenyl)amino)phenyl)-1,3,4-oxadiazol-2-yl)propanamide]",> 7.00
8,"CC(C)NCCc1nnc(-c2ccccc2Nc2ccc(C(F)(F)F)cc2)o1 [Compound 91, 2-(5-(2-(isopropylamino)ethyl)-1,3,4-oxadiazol-2-yl)-N-(4-(trifluoromethyl)phenyl)aniline]",5.30 to 6.00
9,"CCOC(=O)CNc1nnc(-c2ccccc2Nc2ccc(C(F)(F)F)cc2)o1 [Compound 9, ethyl (5-(2-((4-(trifluoromethyl)phenyl)amino)phenyl)-1,3,4-oxadiazol-2-yl)glycinate]",5.30 to 6.00
10,"C=C(C)c1nnc(-c2ccccc2Nc2ccc(C(F)(F)F)cc2)o1 [Compound 133, 2-(5-(prop-1-en-2-yl)-1,3,4-oxadiazol-2-yl)-N-(4-(trifluoromethyl)phenyl)aniline]",6.00 to 7.00
11,"O=C(NO)c1nnc(-c2ccccc2Nc2ccc(C(F)(F)F)cc2)o1 [Compound 14, N-hydroxy-5-(2-((4-(trifluoromethyl)phenyl)amino)phenyl)-1,3,4-oxadiazole-2-carboxamide]",> 7.00
12,"CC1(C)OCC(O)(c2nnc(-c3ccccc3Nc3ccc(C(F)(F)F)cc3)o2)CO1 [Compound 199, 2,2-dimethyl-5-(5-(2-((4-(trifluoromethyl)phenyl)amino)phenyl)-1,3,4-oxadiazol-2-yl)-1,3-dioxan-5-ol]",5.30 to 6.00
13,"Cc1ccc(S(=O)(=O)N2C(=O)OCC2c2nnc(-c3ccccc3Nc3ccc(C(F)(F)F)cc3)o2)cc1 (stereo not shown) [Compound 16, 3-tosyl-4-(5-(2-((4-(trifluoromethyl)phenyl)amino)phenyl)-1,3,4-oxadiazol-2-yl)oxazolidin-2-one]",6.00 to 7.00
14,"CC(=O)OC(CO)c1nnc(-c2ccccc2Nc2ccc(C(F)(F)F)cc2)o1 (stereo not shown) [Compound 202, 2-hydroxy-1-(5-(2-((4-(trifluoromethyl)phenyl)amino)phenyl)-1,3,4-oxadiazol-2-yl)ethyl acetate]",> 7.00
15,"C#CCOc1nnc(-c2ccccc2Nc2ccc(C(F)(F)F)cc2)o1 [Compound 83, 2-(5-(prop-2-yn-1-yloxy)-1,3,4-oxadiazol-2-yl)-N-(4-(trifluoromethyl)phenyl)aniline]",> 7.00
16,"OCC(O)c1nnc(-c2ccccc2Nc2ccc(C(F)(F)F)cc2)o1 (stereo not shown) [Compound 25, 1-[5-[2-[4-(trifluoromethyl)anilino]phenyl]-1,3,4-oxadiazol-2-yl]ethane-1,2-diol]",> 7.00
17,"FC(F)(F)c1ccc(Nc2ccccc2-c2nnc(C3CCCN3)o2)cc1 (stereo not shown) [Compound 169, 2-(5-(pyrrolidin-2-yl)-1,3,4-oxadiazol-2-yl)-N-(4-(trifluoromethyl)phenyl)aniline]",6.00 to 7.00
18,"CC1(c2nnc(-c3ccccc3Nc3ccc(C(F)(F)F)cc3)o2)COC1 [Compound 183, 2-(5-(3-methyloxetan-3-yl)-1,3,4-oxadiazol-2-yl)-N-(4-(trifluoromethyl)phenyl)aniline]",6.00 to 7.00

row,Compound,pIC50
1,"CC(Cc1nnc(-c2ccccc2Nc2ccc(C(F)(F)F)cc2)o1)N(C)C#N (stereo not shown) [Compound 149, N-methyl-N-(1-(5-(2-((4-(trifluoromethyl)phenyl)amino)phenyl)-1,3,4-oxadiazol-2-yl)propan-2-yl)cyanamide]",> 7.00
2,"C/C=C/c1nnc(-c2ccccc2Nc2ccc(C(F)(F)F)cc2)o1 [Compound 117, (E)-2-(5-(prop-1-en-1-yl)-1,3,4-oxadiazol-2-yl)-N-(4-(trifluoromethyl)phenyl)aniline]",6.00 to 7.00
3,"NC(=O)CNc1nnc(-c2ccccc2Nc2ccc(C(F)(F)F)cc2)o1 [Compound 24, 2-((5-(2-((4-(trifluoromethyl)phenyl)amino)phenyl)-1,3,4-oxadiazol-2-yl)amino)acetamide]",6.00 to 7.00
4,"C#CC(C)Oc1nnc(-c2ccccc2Nc2ccc(C(F)(F)F)cc2)o1 (stereo not shown) [Compound 69, 2-(5-(but-3-yn-2-yloxy)-1,3,4-oxadiazol-2-yl)-N-(4-(trifluoromethyl)phenyl)aniline]",> 7.00
5,"CN(C#N)C1(c2nnc(-c3ccccc3Nc3ccc(C(F)(F)F)cc3)o2)CC1 [Compound 155, N-methyl-N-(1-(5-(2-((4-(trifluoromethyl)phenyl)amino)phenyl)-1,3,4-oxadiazol-2-yl)cyclopropyl)cyanamide]",> 7.00
6,"C=Cc1nnc(-c2ccccc2Nc2ccc(C(F)(F)F)cc2)o1 [Compound 123, N-(4-(trifluoromethyl)phenyl)-2-(5-vinyl-1,3,4-oxadiazol-2-yl)aniline]",> 7.00
7,"C=CC(=O)NCc1nnc(-c2ccccc2Nc2ccc(C(F)(F)F)cc2)o1 [Compound 108, N-((5-(2-((4-(trifluoromethyl)phenyl)amino)phenyl)-1,3,4-oxadiazol-2-yl)methyl)acrylamide]",> 7.00
8,"FC(F)(F)c1ccc(Nc2ccccc2-c2nnc(C3(F)CC3)o2)cc1 [Compound 63, 2-(5-(1-fluorocyclopropyl)-1,3,4-oxadiazol-2-yl)-N-(4-(trifluoromethyl)phenyl) aniline]",5.30 to 6.00
9,"CN(CCO)c1nnc(-c2ccccc2Nc2ccc(C(F)(F)F)cc2)o1 [Compound 19, 2-(methyl(5-(2-((4-(trifluoromethyl)phenyl)amino)phenyl)-1,3,4-oxadiazol-2-yl)amino)ethan-1-ol]",6.00 to 7.00
10,"CC(O)(CCO)c1nnc(-c2ccccc2Nc2ccc(C(F)(F)F)cc2)o1 (stereo not shown) [Compound 179, 3-(5-(2-((4-(trifluoromethyl)phenyl)amino)phenyl)-1,3,4-oxadiazol-2-yl)butane-1,3-diol]",> 7.00
11,"CNC(C)Cc1nnc(-c2ccccc2Nc2ccc(C(F)(F)F)cc2)o1 (stereo not shown) [Compound 147, 2-(5-(2-(methylamino)propyl)-1,3,4-oxadiazol-2-yl)-N-(4-(trifluoromethyl)phenyl)aniline]",5.30 to 6.00
12,"FC(F)(F)c1ccc(Nc2ccccc2-c2nnc(C3CCO3)o2)cc1 (stereo not shown) [Compound 182, 2-(5-(oxetan-2-yl)-1,3,4-oxadiazol-2-yl)-N-(4-(trifluoromethyl)phenyl)aniline]",> 7.00
13,"CC(C)(O)c1nnc(-c2ccccc2Nc2ccc(C(F)(F)F)cc2)o1 [Compound 42, 2-(5-(2-((4-(trifluoromethyl)phenyl)amino)phenyl)-1,3,4-oxadiazol-2-yl)propan-2-ol]",> 7.00
14,"NCc1nnc(-c2ccccc2Nc2ccc(C(F)(F)F)cc2)o1 [Compound 28, 2-[5-(aminomethyl)-1,3,4-oxadiazol-2-yl]-N-[4-(trifluoromethyl)phenyl]aniline]",6.00 to 7.00
15,"C#CCNC(=O)c1nnc(-c2ccccc2Nc2ccc(C(F)(F)F)cc2)o1 [Compound 116, N-(prop-2-yn-1-yl)-5-(2-((4-(trifluoromethyl)phenyl)amino)phenyl)-1,3,4-oxadiazole-2-carboxamide]",> 7.00
16,"CNC(=O)c1nnc(-c2ccccc2Nc2ccc(C(F)(F)F)cc2)o1 [Compound 198, N-methyl-5-(2-((4-(trifluoromethyl)phenyl)amino)phenyl)-1,3,4-oxadiazole-2-carboxamide]",> 7.00
17,"COC1(c2nnc(-c3ccccc3Nc3ccc(C(F)(F)F)cc3)o2)CC1 [Compound 67, 2-(5-(1-methoxycyclopropyl)-1,3,4-oxadiazol-2-yl)-N-(4-(trifluoromethyl)phenyl) aniline]",> 7.00
18,"OCc1nnc(-c2ccccc2Nc2ccc(C(F)(F)F)cc2)o1 [Compound 5, (5-(2-((4-(trifluoromethyl)phenyl)amino)phenyl)-1,3,4-oxadiazol-2-yl)methanol]",> 7.00

# Same assay, conditions: Homo sapiens, HEK-293T; […]; 24-hr incubation; top concentration 3 μM; read-out: Firefly Luciferase IC50
row,Compound,pIC50
1,"C=CCOc1nnc(-c2ccccc2Nc2ccc(C(F)(F)F)cc2)o1 [Compound 84, 2-(5-(allyloxy)-1,3,4-oxadiazol-2-yl)-N-(4-(trifluoromethyl)phenyl)aniline]",6.00 to 7.00
2,"CC(=O)NC1(c2nnc(-c3ccccc3Nc3ccc(C(F)(F)F)cc3)o2)CC1 [Compound 59, N-(1-(5-(2-((4-(trifluoromethyl)phenyl)amino)phenyl)-1,3,4-oxadiazol-2-yl)cyclopropyl)acetamide]",6.00 to 7.00
3,"OC(CCCl)c1nnc(-c2ccccc2Nc2ccc(C(F)(F)F)cc2)o1 (stereo not shown) [Compound 80, 3-chloro-1-(5-(2-((4-(trifluoromethyl)phenyl)amino)phenyl)-1,3,4-oxadiazol-2-yl)propan-1-ol]",> 7.00
